In patent publication US20250170266A1 (ZYMEWORKS BC INC., priority 2022, published 2025):
Read-outs that look alike come from different tables or passages of the source.

Columns and labels:
Format in all cases: cell-based
hTLR7 = molecular target: T1, hTLR7 (Homo sapiens, UniProt Q9NYK1); test: Reporter Gene Assay (RGA), HEK-Blue hTLR7 reporter cells, SEAP readout; conditions: overnight incubation, SEAP absorbance 620 nm
T1 construct: host or cells: HEK-Blue hTLR7 reporter cells (HEK293-derived, own knowledge)
T1 sequence (Q9NYK1 27-1049): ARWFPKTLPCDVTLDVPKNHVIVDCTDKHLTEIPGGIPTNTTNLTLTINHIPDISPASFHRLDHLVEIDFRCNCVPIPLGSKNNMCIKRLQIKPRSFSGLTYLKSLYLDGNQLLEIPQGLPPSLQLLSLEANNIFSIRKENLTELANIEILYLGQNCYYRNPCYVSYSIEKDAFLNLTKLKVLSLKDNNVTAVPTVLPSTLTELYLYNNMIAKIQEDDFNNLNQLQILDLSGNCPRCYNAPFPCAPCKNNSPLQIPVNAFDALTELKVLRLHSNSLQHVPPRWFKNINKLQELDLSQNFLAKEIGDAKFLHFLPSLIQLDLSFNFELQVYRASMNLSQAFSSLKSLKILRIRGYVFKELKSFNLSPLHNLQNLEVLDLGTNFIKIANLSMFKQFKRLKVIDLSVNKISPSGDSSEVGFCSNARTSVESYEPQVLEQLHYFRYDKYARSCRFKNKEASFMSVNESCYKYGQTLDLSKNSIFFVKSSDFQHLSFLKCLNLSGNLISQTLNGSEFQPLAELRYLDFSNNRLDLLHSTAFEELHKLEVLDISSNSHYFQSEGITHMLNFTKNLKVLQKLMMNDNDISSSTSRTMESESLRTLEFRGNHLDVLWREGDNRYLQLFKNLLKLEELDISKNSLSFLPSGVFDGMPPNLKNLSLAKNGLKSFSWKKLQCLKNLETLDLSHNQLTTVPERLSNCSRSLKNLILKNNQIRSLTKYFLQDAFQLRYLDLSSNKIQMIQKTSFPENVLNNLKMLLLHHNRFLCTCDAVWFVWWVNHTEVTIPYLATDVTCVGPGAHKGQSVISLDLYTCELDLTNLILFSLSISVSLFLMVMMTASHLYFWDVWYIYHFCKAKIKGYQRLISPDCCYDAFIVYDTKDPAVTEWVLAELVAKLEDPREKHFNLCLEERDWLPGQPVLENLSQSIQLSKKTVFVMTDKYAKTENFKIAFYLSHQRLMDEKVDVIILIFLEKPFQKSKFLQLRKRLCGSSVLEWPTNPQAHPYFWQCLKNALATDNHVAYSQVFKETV
Description: (§1) 1.5×10^4 HEK-Blue™ hTLR7 (Invivogen, San Diego, CA) or HEK-Blue™ mTLR7 (Invivogen, San Diego, CA) reporter cells were treated with a titration series of test compound (4-fold titration from […], 11 points). Compounds were initially diluted to 1 mM in DMSO and subsequently serial-diluted in assay media (HEK-Blue™ Detection; Invivogen, San Diego, CA). Cells with test compound were incubated overnight at 37° C.+5% CO2, and the amount of secreted embryonic alkaline phosphatase (SEAP) was determined by measuring absorbance (620 nm) using a Synergy™ H1 microplate reader.
(§2) Each assay included a positive control compound (referred to herein as “benchmark,” see, e.g., TABLE 3 below, and taken from International Patent Publication No. WO2017/072662, structure shown below) and a negative control (growth medium). […] The structure of the benchmark compound from International Patent Publication No. WO 2017/072662 is as follows: […]

mTLR7 = molecular target: T2, mTLR7 (Mus musculus, UniProt P58681); test: Reporter Gene Assay (RGA), HEK-Blue mTLR7 reporter cells, SEAP readout; conditions: overnight incubation, SEAP absorbance 620 nm
T2 construct: host or cells: HEK-Blue mTLR7 reporter cells (HEK293-derived, own knowledge)
T2 sequence (P58681 27-1050): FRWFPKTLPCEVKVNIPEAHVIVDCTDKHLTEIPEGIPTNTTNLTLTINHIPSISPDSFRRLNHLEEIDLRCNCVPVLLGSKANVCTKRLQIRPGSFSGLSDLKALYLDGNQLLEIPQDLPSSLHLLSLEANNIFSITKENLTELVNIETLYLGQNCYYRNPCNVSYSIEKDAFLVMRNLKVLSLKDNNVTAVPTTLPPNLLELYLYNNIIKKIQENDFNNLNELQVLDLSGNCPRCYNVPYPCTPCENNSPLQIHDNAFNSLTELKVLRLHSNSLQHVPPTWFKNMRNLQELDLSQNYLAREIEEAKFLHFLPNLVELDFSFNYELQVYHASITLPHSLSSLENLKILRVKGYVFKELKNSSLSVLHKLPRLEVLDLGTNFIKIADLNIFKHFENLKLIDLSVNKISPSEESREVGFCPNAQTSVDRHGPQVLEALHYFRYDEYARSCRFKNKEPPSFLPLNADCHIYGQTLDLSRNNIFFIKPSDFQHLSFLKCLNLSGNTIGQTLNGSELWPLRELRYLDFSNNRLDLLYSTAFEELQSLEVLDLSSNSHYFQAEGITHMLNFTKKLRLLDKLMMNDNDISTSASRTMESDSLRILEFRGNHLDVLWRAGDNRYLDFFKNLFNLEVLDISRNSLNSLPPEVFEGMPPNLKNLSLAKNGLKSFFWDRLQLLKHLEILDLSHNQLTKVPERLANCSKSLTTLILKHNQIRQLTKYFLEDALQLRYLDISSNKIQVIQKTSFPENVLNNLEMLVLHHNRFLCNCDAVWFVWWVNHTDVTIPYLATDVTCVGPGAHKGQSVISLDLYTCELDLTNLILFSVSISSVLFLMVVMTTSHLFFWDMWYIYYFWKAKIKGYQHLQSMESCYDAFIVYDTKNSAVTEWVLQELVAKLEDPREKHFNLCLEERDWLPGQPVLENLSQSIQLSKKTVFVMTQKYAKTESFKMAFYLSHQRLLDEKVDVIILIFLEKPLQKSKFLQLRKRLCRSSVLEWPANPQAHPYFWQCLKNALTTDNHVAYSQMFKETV
Description: as §1, §2

Mouse splenocytes = test: Mouse Splenocyte Assay, cytokine release (HTRF); conditions: 24 hours, mIL6 in supernatant; for EC50: Splenocyte, read-out: Splenocyte IL6 EC50
Description: Mouse splenocytes were isolated from fresh mouse spleens. Briefly, spleens were harvested from female balb/c nude mice and transferred to a 70 μm cell strainer. The cell strainer was subsequently placed in a 6-well suspension culture plate containing 5 mL media (RPMI+10% FBS). The spleens were crushed against the cell strainer using the flat end of a 10 mL syringe plunger and the cell strainer was washed with 5 mL media. The cell strainer was discarded, and the cell suspension was washed in PBS. Red blood cells were removed using PharmaLyse (BD). The cell suspension was washed in media, resuspended in CryoStor® CS10 ([…]) and frozen. On assay day, mouse splenocytes were thawed in warm assay buffer (RPMI+10% FBS). Cells were spun down and resuspended in fresh assay buffer. 100,000 cells were added to each well of plates containing test compound. For test compound preparation, each compound was initially diluted to 1 mM in DMSO and further diluted in assay buffer. A 4-fold 11-point titration starting from 15 μM was performed. Cells were incubated with test compound at 37° C.+5% CO2 for 24 hours before supernatant was harvested. Murine IL6 (mIL6) and murine TNFα (mTNFα) were quantified in the supernatant using homogeneous time resolved fluorescence (Cisbio).
as §2

[1] = system: Human peripheral blood mononuclear cells (PBMCs); test: Human PBMC Assay, cytokine release (HTRF); conditions: 24 hours; for EC50: PBMC
Description: Human peripheral blood mononuclear cells (PBMCs) were isolated from fresh Leukopak using magnetic separation. Briefly, erythrocytes and granulocytes were magnetically labeled with Erythrocyte Depletion MicroBeads (Miltenyi Biotec) and Granulocyte Depletion MicroBeads (Miltenyi Biotec), respectively. The cell suspension was loaded onto a Multi-24 Column Block (Miltenyi Biotec) and placed in the magnetic field of a MultiMACS Cell24 Separator Plus (Miltenyi Biotec). The unlabelled PBMCs were collected in the run through. PBMCs were resuspended in CryoStor® CS10 ([…]) and frozen. On the day before the assay, PBMCs were thawed in warm assay buffer (RPMI+10% FBS) and resuspended in assay buffer+10 ng/ml hIL3 (R&D Systems). Cells were rested at 37° C.+5% CO2 overnight. The following day, cells were spun down and resuspended in fresh assay buffer. 300,000 cells were added to each well of plates containing test compound. For test compound preparation, each compound was initially diluted to 1 mM in DMSO and further diluted in assay buffer. A 4-fold 11-point titration starting from 15 μM was performed. Cells were incubated with test compound at 37° C.+5% CO2 for 24 hours before supernatant was harvested. Human interleukin 6 (hIL6), human tumor necrosis factor alpha (hTNFα), and human interferon alpha (hIFNα) were quantified in the supernatant using homogeneous time resolved fluorescence (Cisbio).
as §2

[2] = hIFNα in supernatant, EC50 values approximated and divided into groups, read-out: PBMC IFNa EC50
[3] = hIL6 in supernatant, read-out: PBMC IL6 EC50

SMILES | EC50 (hTLR7) [nM] | EC50 (mTLR7) [nM] | EC50 (Mouse splenocytes) [nM] | Splenocyte IL6 EC50 (nM) (Mouse splenocytes) | EC50 [1, 2] [nM] | EC50 [1, 3] [nM] | PBMC IL6 EC50 (nM) ([1]; hIL6 in supernatant)
CCCCOc1nc(N)c2nc(O)n(Cc3ccc(N4CCNCC4)nc3)c2n1 [Compound 167, 6-amino-2-butoxy-9-((6-(piperazin-1-yl)pyridin-3-yl)methyl)-9H-purin-8-ol] | 0.5 | 5.3 | 18 | – | > 10 | 2030 | –
CCCCOc1nc(N)c2nc(O)n(Cc3ccc(CCN4CCNCC4)cc3OC)c2n1 [Compound 180, 6-amino-2-butoxy-9-(2-methoxy-4-(2-(piperazin-1-yl)ethyl)benzyl)-9H-purin-8-ol] | 34 | 79.9 | 873 | – | > 10 | – | inactive
CCCCOc1nc(N)c2nc(O)n(Cc3ccc(N4CCC(N)CC4)cc3OC)c2n1 [Compound 170, 6-amino-9-(4-(4-aminopiperidin-1-yl)-2-methoxybenzyl)-2-butoxy-9H-purin-8-ol] | 1 | 2 | 51.7 | – | > 10 | 1470 | –
CCOc1nc(N)c2nc(O)n(Cc3ccc(CNCCN4CCSCC4)cc3OC)c2n1 [Compound 137, 6-amino-2-ethoxy-9-(2-methoxy-4-(((2-thiomorpholinoethyl)amino)methyl)-benzyl)-9H-purin-8-ol] | 22.2 | 210 | 230 | – | 0.1 to 1 | 39.4 | –
CCCCCNc1nc(N)nc2ccn(Cc3ccc(CN4CCN(CCNC(=O)CC(SCC(N)C(=O)O)C(=O)O)CC4)cc3OC)c12 (stereo not drawn) [Benchmark, reference compound] | – | – | 222 | – | 1 to 10 | 207 | –
CCCCOc1nc(N)c2nc(O)n(Cc3ccc(CCN4CCC(CCN)CC4)cc3OC)c2n1 [Compound 178, 6-amino-9-(4-(2-(4-(2-aminoethyl)piperidin-1-yl)ethyl)-2-methoxybenzyl)-2-butoxy-9H-purin-8-ol] | 144 | – | 245 | – | 1 to 10 | 284 | –
CCOc1nc(N)c2nc(O)n(Cc3ccc(CN[C@@H](Cc4ccccc4)C(=O)O)cc3OC)c2n1 [Compound 117, (4-((6-amino-2-ethoxy-8-hydroxy-9H-purin-9-yl)methyl)-3-methoxybenzyl)-L-phenylalanine] | 13000 | – | – | inactive | > 10 | – | inactive
CCCCOc1nc(N)c2nc(O)n(Cc3ccc(CCN4CCC(N)CC4)cc3OC)c2n1 [Compound 181, 6-amino-9-(4-(2-(4-aminopiperidin-1-yl)ethyl)-2-methoxybenzyl)-2-butoxy-9H-purin-8-ol] | 4.5 | – | 235 | – | > 10 | – | inactive

Second part, led by results:

EC50 (hTLR7) [nM] | EC50 (mTLR7) [nM] | EC50 (Mouse splenocytes) [nM] | Splenocyte IL6 EC50 (nM) (Mouse splenocytes) | SMILES | EC50 [1, 2] [nM] | EC50 [1, 3] [nM] | PBMC IL6 EC50 (nM) ([1]; hIL6 in supernatant)
10 | 1 | 20.4 | – | CCCCCNc1nc(N)c2nc(O)n(Cc3ccc(CN(CC)CC)cc3)c2n1 [Compound 185, 6-amino-9-(4-((diethylamino)methyl)benzyl)-2-(pentylamino)-9H-purin-8-ol] | 1 to 10 | 12.6 | –
7 | 2.4 | 26.2 | – | CCOc1nc(N)c2nc(O)n(Cc3ccc(CNCc4ccc(CN)cc4)cc3OC)c2n1 [Compound 105, 6-amino-9-(4-(((4-(aminomethyl)benzyl)amino)methyl)-2-methoxybenzyl)-2-ethoxy-9H-purin-8-ol] | < 0.1 | 394 | –
69 | 142 | 338 | – | CCOc1nc(N)c2nc(O)n(Cc3ccc(CNCc4ccc(CN5CCNCC5)cc4)cc3OC)c2n1 [Compound 145, 6-amino-2-ethoxy-9-(2-methoxy-4-(((4-(piperazin-1-ylmethyl)benzyl)amino)-methyl)benzyl)-9H-purin-8-ol] | – | 126 | –
33.2 | 637 | 881 | – | CCOc1nc(N)c2nc(O)n(Cc3ccc(CN(CC(=O)O)CC(=O)O)cc3OC)c2n1 [Compound 120, 2,2′-((4-((6-amino-2-ethoxy-8-hydroxy-9H-purin-9-yl)methyl)-3-methoxy-benzyl)azanediyl) diacetic Acid] | > 10 | 524 | –
